PMC8715118, “Assessing potentiation of the (α4)3(β2)2 nicotinic acetylcholine receptor by the allosteric agonist CMPI” (The Journal of Biological Chemistry, 2021)
Where two headings read alike, the source gives them in different places.

Experiments:
Type in all cases: cell-based
(α4)3(β2)2 nAChR [1] = molecular target: T1, (α4)3(β2)2 nAChR (Homo sapiens, UniProt P17787+P43681); test: Two-electrode voltage-clamp whole-cell currents, Xenopus oocytes expressing WT (α4)3(β2)2 nAChR
T1 construct: expressed in transfected cells; host or cells: Xenopus laevis oocytes injected with cRNA, 8:1 α4:β2
Experimental: (§1) Oocytes-positive female Xenopus laevis were purchased from NASCO, and all procedures were performed according to an animal use protocol approved by the Institutional Animals Care and Use Committee of The University of Texas Health Science Center at Tyler. Ovarian lobules were surgically harvested, treated with collagenase type 2, and Stage V and VI oocytes were visually selected and maintained at 18 °C in modified ND96-gentamicin buffer (96 mM NaCl, 2 mM KCl, 1.8 mM CaCl2, 1 mM MgCl2, 5 mM Hepes, and 50 μg/ml gentamicin, pH 7.6).
(§2) pSP64 Poly(A) plasmids with cDNA encoding for human α4 or β2 nAChR subunit were used to prepare cRNA transcripts suitable for oocyte expression. The plasmids were linearized with AseI (hα4) and PvuII (hβ2), then cRNA transcripts were prepared in vitro using mMESSAGE mMACHINE high yield-capped RNA transcription kits (Ambion, Thermo Fisher Scientific), purified on NucAway Spin column (Invitrogen, Thermo Fisher Scientific), and stored at −80 °C until used. Point mutations within the plasmid encoding the α4 nAChR subunit were introduced using QuikChange II Site-Directed Mutagenesis Kit (Agilent Technologies), as described previously ([28]). To generate amino acid substitutions (K64T, E66I, H116V, H116L, and H116A), two custom-designed complementary oligos containing the desired mutation were used (Integrated DNA Technologies). The forward primers were as the following with the codon for mutated amino acids are underlined and nucleotide(s) changes are bolded and italicized:
(§3) The oocytes were injected with 10 to 50 ng of a cRNA mix containing α4 (WT or mutant) and β2 RNAs at ratios of 8:1(α4:β) or 1:8 (α4:β2) to bias expression toward (α4)3(β2)2 or (α4)2(β2)3 nAChRs, respectively. The injection of oocytes with RNAs mixture containing four folds or higher α4 RNA than β2 RNA have been established to express receptor population that is made up of three α4 and two β2 subunits ([9], [12], [28], [43], [44], [45]).
(§4) 24 to 72 h after cRNA injection, Xenopus oocytes were placed in a custom-made recording chamber that is connected to an eight-channel automated perfusion system (Warner Instruments) and perfused with recording buffer (100 mM NaCl, 2 mM KCl, 1 mM CaCl2, 0.8 mM MgCl2, 1 mM EGTA, and 10 mM Hepes, pH 7.5). Unless otherwise specified in figure legends, each recording run included several drug applications (10 s of an agonist with or without CMPI or NS9283) separated by 3 to 4 min buffer wash intervals. Between recording runs, the oocytes were washed with recording buffer for at last 5 min. The oocytes were voltage-clamped at −50 mV using Oocyte Clamp OC-725B (Warner Instruments). The currents were digitized using Digidata 1550A (Axon Instruments, Molecular Devices), and the peak currents were quantified using pCLAMP 10 (Axon Instruments), then normalized and analyzed using Excel 2010 (Microsoft) and SigmaPlot 11.0 (Systat Software). For NS9283 and CMPI potentiation of agonist-induced responses, the peak currents were normalized to current elicited by agonist alone applied within the same recording run. For the effect of coapplication of 1 μM NS9283 or CMPI on agonist concentration-response curve, the peak currents were normalized to current elicited by saturating concentration of agonist applied within the same recording run. […] I0 = 100 for NS9283 and CMPI potentiation of agonist-induced responses and I0 = 0 for agonist concentration-response experiments. The best-fit values for Imax and EC50 ± SD are presented.

(α4H116A)3(β2)2 nAChR [2] = molecular target: T2, (α4H116A)3(β2)2 nAChR (Homo sapiens, UniProt P17787+P43681, H142A); test: Two-electrode voltage-clamp, oocytes expressing (α4H116A)3(β2)2 nAChR
T2 construct: expressed in transfected cells; host or cells: Xenopus laevis oocytes injected with cRNA, 8:1 α4:β2
Experimental: as §1, §2, §3, §4

(α4)2(β2)3 nAChR = molecular target: T3, (α4)2(β2)3 nAChR (Homo sapiens, UniProt P17787+P43681); test: Two-electrode voltage-clamp whole-cell currents, Xenopus oocytes expressing (α4)2(β2)3 nAChR
T3 construct: expressed in transfected cells; host or cells: Xenopus laevis oocytes injected with cRNA, 1:8 α4:β2
Experimental: as §1
pSP64 Poly(A) plasmids with cDNA encoding for human α4 or β2 nAChR subunit were used to prepare cRNA transcripts suitable for oocyte expression. The plasmids were linearized with AseI (hα4) and PvuII (hβ2), then cRNA transcripts were prepared in vitro using mMESSAGE mMACHINE high yield-capped RNA transcription kits (Ambion, Thermo Fisher Scientific), purified on NucAway Spin column (Invitrogen, Thermo Fisher Scientific), and stored at −80 °C until used. […]
Two-electrode voltage-clamp recordings of ACh- or TC-2559 induced responses of Xenopus oocytes were performed, as described in ([28]). […] The currents were digitized using Digidata 1550A (Axon Instruments, Molecular Devices), and the peak currents were quantified using pCLAMP 10 (Axon Instruments), then normalized and analyzed using Excel 2010 (Microsoft) and SigmaPlot 11.0 (Systat Software). […]

(α4H116A)3(β2)2 nAChR [3] = molecular target: T2, (α4H116A)3(β2)2 nAChR; test: Mechanistic (Monod-Wyman-Changeux two-state model) analysis of current responses, (α4H116A)3(β2)2 nAChR; settings: α4H116A mutant; for Kd: read-out: KR, equilibrium dissociation constant in the resting receptor
Experimental: (§5) Further analysis of electrophysiological data was conducted in the framework of the two-state concerted transition model, adapted from the MWC cyclic model originally used to describe enzyme function ([31], [32], [33]). The raw peak amplitudes of current responses were converted to units of probability of being in the active state (PA).
(§6) The numbers of α4:β2 and α4:α4 binding sites (Nα4:β2 and Nα4:α4) were constrained to 2 and 1, respectively.
(§7) The concentration-response curve for TC-2559 was fitted to the following equation:(3) PA=1/1+L[1+[TC-2559]/KR,TC-2559,α4:β2/1+[TC-2559]/(KR,TC-2559,α4:β2cTC-2559,α4:β2)]^Nα4:β2
(§8) The concentration-response data were analyzed using Equation 3, with the value of L modified to reflect receptor activation by TC-2559, and the affinity and efficacy terms in the equation reflecting the values for CMPI. The number of binding sites for CMPI in Equation 3 was constrained to 1.
(§9) Curve fitting was done using Origin 2020 (OriginLab Corp). The results are reported as best-fit parameter ±SD of the fit. All data are included in the analysis.

(α4)3(β2)2 nAChR [4] = molecular target: T1, (α4)3(β2)2 nAChR; test: Mechanistic (Monod-Wyman-Changeux two-state model) analysis of current responses, WT (α4)3(β2)2 nAChR; settings: α4:β2 site, WT
Description: To gain mechanistic insight into receptor activation in the presence of CMPI, we analyzed the currents in the framework of a cyclic two-state (resting and active) allosteric activation model ([31], [32], [33]). In this model, channel opening is mediated by stabilization of the active state by an agonist that, by definition, has higher affinity to the active than resting state.
We commenced by converting the raw amplitudes of current responses to units of probability of being in the active state (PA units).
as §5, §6, §7, §8, §9

T1 sequence (P43681 27-627): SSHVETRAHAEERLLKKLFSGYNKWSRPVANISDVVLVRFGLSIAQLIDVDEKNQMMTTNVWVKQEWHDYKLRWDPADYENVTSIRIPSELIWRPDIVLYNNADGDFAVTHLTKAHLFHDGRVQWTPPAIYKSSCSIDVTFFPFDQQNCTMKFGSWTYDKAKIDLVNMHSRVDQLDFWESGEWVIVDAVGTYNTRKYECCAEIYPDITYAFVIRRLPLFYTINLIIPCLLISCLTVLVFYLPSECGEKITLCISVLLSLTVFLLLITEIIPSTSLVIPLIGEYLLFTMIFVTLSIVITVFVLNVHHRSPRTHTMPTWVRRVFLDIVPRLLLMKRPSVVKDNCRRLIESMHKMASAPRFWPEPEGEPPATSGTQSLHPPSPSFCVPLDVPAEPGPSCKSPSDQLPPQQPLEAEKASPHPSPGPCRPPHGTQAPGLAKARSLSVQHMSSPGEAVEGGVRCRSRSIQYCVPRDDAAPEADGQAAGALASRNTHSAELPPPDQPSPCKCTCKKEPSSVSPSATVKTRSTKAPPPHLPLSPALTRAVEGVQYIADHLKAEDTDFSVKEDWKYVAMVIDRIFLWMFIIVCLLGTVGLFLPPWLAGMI
T1 sequence (P17787 26-502): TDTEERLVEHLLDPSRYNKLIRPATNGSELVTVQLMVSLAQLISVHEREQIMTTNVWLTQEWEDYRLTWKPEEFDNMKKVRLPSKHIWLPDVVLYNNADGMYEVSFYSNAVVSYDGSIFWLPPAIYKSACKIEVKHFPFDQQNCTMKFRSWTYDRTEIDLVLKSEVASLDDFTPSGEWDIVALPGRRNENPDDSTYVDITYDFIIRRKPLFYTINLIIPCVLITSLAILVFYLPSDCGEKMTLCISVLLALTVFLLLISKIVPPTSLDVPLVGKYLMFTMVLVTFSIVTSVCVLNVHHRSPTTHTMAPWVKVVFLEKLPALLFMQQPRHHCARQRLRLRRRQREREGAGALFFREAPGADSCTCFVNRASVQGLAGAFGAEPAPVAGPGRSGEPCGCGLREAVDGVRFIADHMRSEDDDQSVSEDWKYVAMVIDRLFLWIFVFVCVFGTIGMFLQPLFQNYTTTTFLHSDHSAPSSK
T2 sequence (P43681 27-627 H142A): as the sequence (P43681 27-627) above, with H116A counted along it
T2 sequence (P17787 26-502): as the sequence (P17787 26-502) above
T3 sequence (P43681 27-627): as the sequence (P43681 27-627) above
T3 sequence (P17787 26-502): as the sequence (P17787 26-502) above

SMILES: C=CC(C)(C)c1[nH]c2cc(Br)ccc2c1CCNC [dFBr, desformylflustrabromine]
- peak response to 1 mM ACh, % of control ((α4)3(β2)2 nAChR [1]; 1 mM ACh + 3 μM dFBr): 278 ± 36%

SMILES: CN1CCC[C@H]1c1cccnc1 [nicotine]
- current response produced by a saturating concentration (100 μM), % of current elicited by 1 mM ACh ((α4)3(β2)2 nAChR [1]; 100 μM agonist): 73 ± 3%
- current response at subsaturating concentration, % of the current response to 1 mM ACh ((α4)3(β2)2 nAChR [1]; subsaturating (1 μM) agonist): 2.9 ± 0.4%

SMILES: CCOc1cncc(/C=C/CCNC)c1 [TC-2559]
- I30 μM TC-2559, % of current induced by 1 mM ACh ((α4)3(β2)2 nAChR [1]; 30 μM TC-2559): 11 ± 2%
- Emax, % of current induced by 1 mM ACh ((α4)3(β2)2 nAChR [1]; WT): ~10%
- EC50 ((α4)3(β2)2 nAChR [1]; agonist alone, read-out: agonist EC50): 340 ± 40 nM
- Emax, % of current induced by 1 mM ACh ((α4H116A)3(β2)2 nAChR [2]): 182 ± 5%
- Emax ((α4H116A)3(β2)2 nAChR [2]; absence of CMPI, normalized to 100 μM TC-2559): 115 ± 14%
- EC50 ((α4H116A)3(β2)2 nAChR [2]; absence of CMPI, read-out: EC50 of TC-2559): 22000 ± 7000 nM
- I30 μM TC-2559, % of current induced by 1 mM ACh ((α4)2(β2)3 nAChR; 30 μM TC-2559): 152 ± 21%
- EC50 ((α4)2(β2)3 nAChR; agonist alone): 540 ± 20 nM
- c, ratio of equilibrium dissociation constants active/resting receptor ((α4H116A)3(β2)2 nAChR [3]; α4:α4 site): 0.046 ± 0.003
- Kd ((α4H116A)3(β2)2 nAChR [3]; α4:α4 site): 70000 ± 3000 nM
- c, ratio of equilibrium dissociation constants active/resting receptor ((α4H116A)3(β2)2 nAChR [3]; α4:β2 site): 0.337 ± 0.013
- Kd ((α4H116A)3(β2)2 nAChR [3]; α4:β2 site): 210 ± 50 nM
- c, ratio of equilibrium dissociation constants active/resting receptor ((α4)3(β2)2 nAChR [4]): 0.371 ± 0.006
- Kd ((α4)3(β2)2 nAChR [4]; read-out: KR, equilibrium dissociation constant in the resting receptor): 330 ± 50 nM
